{"source": "patent US9394300B2", "about": "“Quinolone derivatives” (Cadila Healthcare Limited, priority 2012, dated 2016)"}
{"test_system": "C57 Mice", "test": "Estimating circulating EPO release in mice (plasma EPO by mouse EPO ELISA)", "assay_type": "in vivo", "conditions": "oral gavage 10 mg/kg, plasma six hours after administration, EPO in control = 62 ng/mL", "experimental": "(§1) (1) Protocol for Estimating Circulating EPO Release in Mice\n(§2) C57 Mice were administered various doses (10 mg/kg, 30 mg/kg, 50 mg/kg, 100 mg/kg) of compounds of the present invention by oral gavage at 10 ml/kg. Six hours after compound administration, mice were bled by retro-orbital puncture, under light ether anesthesia in microfuge tubes containing 2% EDTA (10 μl/100 μl of blood). Plasma was separated and analyzed for EPO content by mouse EPO ELISA.", "units": {"EPO (ng/mL) oral gavage 10 mg/kg": "ng/mL"}}
{"compound": "O=C(O)CNC(=O)c1c(O)c2ccccc2n(OCc2c(F)cccc2F)c1=O", "note": "[Example 16, 2-(1-((2,6-difluorobenzyl)oxy)-4-hydroxy-2-oxo-1,2-dihydroquinoline-3-carboxamido)acetic acid]", "EPO (ng/mL) oral gavage 10 mg/kg": 100}
{"test_system": "C57 Mice", "test": "Estimating circulating EPO release in mice (plasma EPO by mouse EPO ELISA)", "assay_type": "in vivo", "conditions": "oral gavage 50 mg/kg, plasma six hours after administration, EPO in control = 62 ng/mL", "experimental": "as §1, §2", "units": {"EPO (ng/mL) oral gavage 50 mg/kg": "ng/mL"}}
{"compound": "O=C(O)CNC(=O)c1c(O)c2ccccc2n(OCc2c(F)cccc2F)c1=O", "note": "[Example 16, 2-(1-((2,6-difluorobenzyl)oxy)-4-hydroxy-2-oxo-1,2-dihydroquinoline-3-carboxamido)acetic acid]", "EPO (ng/mL) oral gavage 50 mg/kg": 8043}
{"compound": "O=C(O)CNC(=O)c1c(O)c2ccc(Cl)cc2n(OCc2c(F)cccc2F)c1=O", "note": "[Example 20, 2-(7-chloro-1-((2,6-difluorobenzyl)oxy)-4-hydroxy-2-oxo-1,2-dihydroquinoline-3-carboxamido)acetic acid]", "EPO (ng/mL) oral gavage 50 mg/kg": 3797}
{"compound": "O=C(O)CNC(=O)c1c(O)c2ccccc2n(OCc2ccccc2F)c1=O", "note": "[Example 62, 2-(1-((2-fluorobenzyl)oxy)-4-hydroxy-2-oxo-1,2-dihydroquinoline-3-carboxamido)acetic acid]", "EPO (ng/mL) oral gavage 50 mg/kg": 398}
{"compound": "CCOn1c(=O)c(C(=O)NCC(=O)O)c(O)c2ccccc21", "note": "[Example 63, 2-(1-ethoxy-4-hydroxy-2-oxo-1,2-dihydroquinoline-3-carboxamido)acetic acid]", "EPO (ng/mL) oral gavage 50 mg/kg": 539}
{"compound": "COc1ccc(COn2c(=O)c(C(=O)NCC(=O)O)c(O)c3ccccc32)cc1", "note": "[Example 67, 2-(4-hydroxy-1-((4-methoxybenzyl)oxy)-2-oxo-1,2-dihydroquinoline-3-carboxamido)acetic acid]", "EPO (ng/mL) oral gavage 50 mg/kg": 477}
{"test_system": "C57 Mice", "test": "Estimating circulating EPO release in mice (plasma EPO by mouse EPO ELISA)", "assay_type": "in vivo", "conditions": "oral gavage 100 mg/kg, plasma six hours after administration, EPO in control = 62 ng/mL", "experimental": "as §1, §2", "units": {"EPO (ng/mL) oral gavage 100 mg/kg": "ng/mL"}}
{"compound": "O=C(O)CNC(=O)c1c(O)c2ccccc2n(OCc2ccccc2)c1=O", "note": "[Example 1, 2-(1-(benzyloxy)-4-hydroxy-2-oxo-1,2-dihydroquinoline-3-carboxamido)acetic acid]", "EPO (ng/mL) oral gavage 100 mg/kg": 7118}
{"compound": "COn1c(=O)c(C(=O)NCC(=O)O)c(O)c2ccccc21", "note": "[Example 11, 2-(4-hydroxy-1-methoxy-2-oxo-1,2-dihydroquinoline-3-carboxamido)acetic acid]", "EPO (ng/mL) oral gavage 100 mg/kg": 1593}
{"compound": "O=C(O)CNC(=O)c1c(O)c2ccccc2n(OCc2ccc(C(F)(F)F)cc2)c1=O", "note": "[Example 12, 2-(4-hydroxy-2-oxo-1-((4-(trifluoromethyl)benzyl)oxy)-1,2-dihydroquinoline-3-carboxamido)acetic acid]", "EPO (ng/mL) oral gavage 100 mg/kg": 7056}
{"test_system": "C57 Mice", "test": "Estimating hemoglobin levels in mice", "assay_type": "in vivo", "conditions": "oral once daily for 7 consecutive days at 20 mg/kg, whole blood on 8th day", "experimental": "(2) Protocol for Estimating Hemoglobin Levels in Mice\nC57 mice were administered compounds of the present invention at 10 ml/kg by oral route daily once in the morning for 7 consecutive days at 20 mg/kg. On 8th day animals were bled by retro-orbital puncture under light ether anesthesia in microfuge tubes containing 2% EDTA (10 μl/100 μl of blood) for whole blood. Hemoglobin, Reticulocyte count and RBC count were measured using standard procedures.", "units": {"Hemoglobin (g/dL) 20 mg/kg compound": "g/dL"}}
{"compound": "C=CCOn1c(=O)c(C(=O)NCC(=O)O)c(O)c2cc(Oc3ccccc3)ccc21", "note": "[Example 8, 2-(1-(allyloxy)-4-hydroxy-2-oxo-6-phenoxy-1,2-dihydroquinoline-3-carboxamido)acetic acid]", "Hemoglobin (g/dL) 20 mg/kg compound": 15.8}
{"compound": "C=CCOn1c(=O)c(C(=O)NCC(=O)O)c(O)c2sccc21", "note": "[Example 10, 2-(4-(allyloxy)-7-hydroxy-5-oxo-4,5-dihydrothieno[3,2-b]pyridine-6-carboxamido)acetic acid]", "Hemoglobin (g/dL) 20 mg/kg compound": 13.8}
{"compound": "CC(C)On1c(=O)c(C(=O)NCC(=O)O)c(O)c2ccccc21", "note": "[Example 25, 2-(4-hydroxy-1-isopropoxy-2-oxo-1,2-dihydroquinoline-3-carboxamido)acetic acid]", "Hemoglobin (g/dL) 20 mg/kg compound": 14.9}
{"compound": "CC(C)COn1c(=O)c(C(=O)NCC(=O)O)c(O)c2ccccc21", "note": "[Example 28, 2-(4-hydroxy-1-isobutoxy-2-oxo-1,2-dihydroquinoline-3-carboxamido)acetic acid]", "Hemoglobin (g/dL) 20 mg/kg compound": 16.9}
{"compound": "O=C(O)CNC(=O)c1c(O)c2nccnc2n(OCc2c(F)cccc2F)c1=O", "note": "[Example 36, 2-(5-((2,6-difluorobenzyl)oxy)-8-hydroxy-6-oxo-5,6-dihydropyrido[2,3-b]pyrazine-7-carboxamido)acetic acid]", "Hemoglobin (g/dL) 20 mg/kg compound": 14.2}
{"compound": "CCC(CC)On1c(=O)c(C(=O)NCC(=O)O)c(O)c2ccccc21", "note": "[Example 38, 2-(4-hydroxy-2-oxo-1-(pentan-3-yloxy)-1,2-dihydroquinoline-3-carboxamido)acetic acid]", "Hemoglobin (g/dL) 20 mg/kg compound": 15.8}
{"compound": "CCCOn1c(=O)c(C(=O)NCC(=O)O)c(O)c2scc(C)c21", "note": "[Example 40, 2-(7-hydroxy-3-methyl-5-oxo-4-propoxy-4,5-dihydrothieno[3,2-b]pyridine-6-carboxamido)acetic acid]", "Hemoglobin (g/dL) 20 mg/kg compound": 16.1}
{"compound": "Cc1csc2c(O)c(C(=O)NCC(=O)O)c(=O)n(OCc3c(F)cccc3F)c12", "note": "[Example 42, 2-(4-((2,6-difluorobenzyl)oxy)-7-hydroxy-3-methyl-5-oxo-4,5-dihydrothieno[3,2-b]pyridine-6-carboxamido)acetic acid]", "Hemoglobin (g/dL) 20 mg/kg compound": 16.1}
{"compound": "O=C(O)CNC(=O)c1c(O)c2ccccc2n(OCC2CCCCC2)c1=O", "note": "[Example 44, 2-(1-(cyclohexylmethoxy)-4-hydroxy-2-oxo-1,2-dihydroquinoline-3-carboxamido)acetic acid]", "Hemoglobin (g/dL) 20 mg/kg compound": 16.1}
{"compound": "C[C@H](NC(=O)c1c(O)c2ccccc2n(OCC2CC2)c1=O)C(=O)O", "note": "[Example 45, (S)-2-(1-(cyclopropylmethoxy)-4-hydroxy-2-oxo-1,2-dihydroquinoline-3-carboxamido)propanoic acid]", "Hemoglobin (g/dL) 20 mg/kg compound": 15.7}
{"compound": "O=C(O)CNC(=O)c1c(O)c2cncnc2n(OCc2c(F)cccc2F)c1=O", "note": "[Example 46, 2-(8-((2,6-difluorobenzyl)oxy)-5-hydroxy-7-oxo-7,8-dihydropyrido[2,3-d]pyrimidine-6-carboxamido)acetic acid]", "Hemoglobin (g/dL) 20 mg/kg compound": 14.2}
{"compound": "O=C(N[C@H](C(=O)O)c1ccccc1)c1c(O)c2ccccc2n(OCC2CC2)c1=O", "note": "[Example 47, (S)-2-(1-(cyclopropylmethoxy)-4-hydroxy-2-oxo-1,2-dihydroquinoline-3-carboxamido)-2-phenylacetic acid]", "Hemoglobin (g/dL) 20 mg/kg compound": 14.2}
{"compound": "C=CCOn1c(=O)c(C(=O)NCC(=O)O)c(O)c2ccc(N3CCOCC3)cc21", "note": "[Example 48, 2-(1-(allyloxy)-4-hydroxy-7-morpholino-2-oxo-1,2-dihydroquinoline-3-carboxamido)acetic acid]", "Hemoglobin (g/dL) 20 mg/kg compound": 13.9}
{"compound": "CC(C)(C)OC(=O)CNC(=O)c1c(O)c2ccccc2n(OCC2CC2)c1=O", "note": "[Example 49, tert-butyl-2-(1-(cyclopropylmethoxy)-4-hydroxy-2-oxo-1,2-dihydroquinoline-3-carboxamido)acetate]", "Hemoglobin (g/dL) 20 mg/kg compound": 14.1}
{"compound": "COC(=O)CNC(=O)c1c(O)c2ccccc2n(OCC2CC2)c1=O", "note": "[Example 53, methyl-2-(1-(cyclopropylmethoxy)-4-hydroxy-2-oxo-1,2-dihydroquinoline-3-carboxamido)acetate]", "Hemoglobin (g/dL) 20 mg/kg compound": 15.2}
{"compound": "CC(C)C[C@H](NC(=O)c1c(O)c2ccccc2n(OCC2CC2)c1=O)C(=O)O", "note": "[Example 54, (S)-2-(1-(cyclopropylmethoxy)-4-hydroxy-2-oxo-1,2-dihydroquinoline-3-carboxamido)-4-methylpentanoic acid]", "Hemoglobin (g/dL) 20 mg/kg compound": 13.7}
{"compound": "CC(C)[C@H](NC(=O)c1c(O)c2ccccc2n(OCC2CC2)c1=O)C(=O)O", "note": "[Example 55, (S)-2-(1-(cyclopropylmethoxy)-4-hydroxy-2-oxo-1,2-dihydroquinoline-3-carboxamido)-3-methylbutanoic acid]", "Hemoglobin (g/dL) 20 mg/kg compound": 13}
{"compound": "O=C(O)CCNC(=O)c1c(O)c2ccccc2n(OCC2CC2)c1=O", "note": "[Example 56, 3-(1-(cyclopropylmethoxy)-4-hydroxy-2-oxo-1,2-dihydroquinoline-3-carboxamido)propanoic acid]", "Hemoglobin (g/dL) 20 mg/kg compound": 14.4}
{"compound": "O=C(N[C@@H](Cc1ccccc1)C(=O)O)c1c(O)c2ccccc2n(OCC2CC2)c1=O", "note": "[Example 58, (S)-2-(1-(cyclopropylmethoxy)-4-hydroxy-2-oxo-1,2-dihydroquinoline-3-carboxamido)-3-phenylpropanoic acid]", "Hemoglobin (g/dL) 20 mg/kg compound": 14}
{"compound": "O=C(O)CNC(=O)c1c(O)c2ccccc2n(OCC(F)(F)F)c1=O", "note": "[Example 69, 2-(4-hydroxy-2-oxo-1-(2,2,2-trifluoroethoxy)-1,2-dihydroquinoline-3-carboxamido)acetic acid]", "Hemoglobin (g/dL) 20 mg/kg compound": 15.7}
{"compound": "O=C(O)CNC(=O)c1c(O)c2ccncc2n(OCC2CC2)c1=O", "note": "[Example 70, 2-(1-(cyclopropylmethoxy)-4-hydroxy-2-oxo-1,2-dihydro-1,7-naphthyridine-3-carboxamido)acetic acid]", "Hemoglobin (g/dL) 20 mg/kg compound": 13.9}
{"compound": "CCCOn1c(=O)c(C(=O)N[C@@H](C)C(=O)O)c(O)c2ccccc21", "note": "[Example 73, (S)-2-(4-hydroxy-2-oxo-1-propoxy-1,2-dihydroquinoline-3-carboxamido)propanoic acid]", "Hemoglobin (g/dL) 20 mg/kg compound": 16.2}
{"compound": "O=C(O)CNC(=O)c1c(O)c2ccccc2n(OCC/C=C/C2CC2)c1=O", "note": "[Example 76, 2-(1-((4-cyclopropylbut-3-en-1-yl)oxy)-4-hydroxy-2-oxo-1,2-dihydroquinoline-3-carboxamido)acetic acid]", "Hemoglobin (g/dL) 20 mg/kg compound": 17.1}
{"compound": "CCCC(CCC)On1c(=O)c(C(=O)NCC(=O)O)c(O)c2ccccc21", "note": "[Example 77, 2-(1-(heptan-4-yloxy)-4-hydroxy-2-oxo-1,2-dihydroquinoline-3-carboxamido)acetic acid]", "Hemoglobin (g/dL) 20 mg/kg compound": 15.5}
{"compound": "O=C(O)CNC(=O)c1c(O)c2sccc2n(OCC2CC2)c1=O", "note": "[Example 79, 2-(4-(cyclopropylmethoxy)-7-hydroxy-5-oxo-4,5-dihydrothieno[3,2-b]pyridine-6-carboxamido)acetic acid]", "Hemoglobin (g/dL) 20 mg/kg compound": 14.3}
